PubChem BioAssay AID248 (DTP/NCI, 2004)
“And” between values parts separate entries of the source, which are not always exact repeats. Identical values can stand only once. Toxic doses and inconclusive results are not listed.

Tested on: L1210 leukemia ip in BDF1 mice, survival T/C
Assay: NCI In Vivo Anticancer Drug Screen. Data for tumor model L1210 Leukemia (intraperitoneal) in B6D2F1 (BDF1) mice
Details: higher = longer survival
Summary of the method: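 Antitumor effect is assessed in tumor-bearing animals. Survival in the compound arm is compared with a vehicle-dosed control arm and expressed as their quotient.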

NC(=O)N(CCCl)N=O
T/C (endpoint: mean survival time, dose: 0.06 mg/kg/injection, schedule: Q#A X Z (oral), vehicle: saline): 123 % of control | T/C (endpoint: mean survival time, dose: 0.12 mg/kg/injection, schedule: Q01DX010 (iv), vehicle: saline): 98 % of control | T/C (endpoint: mean survival time, dose: 0.13 mg/kg/injection, schedule: Q01DX Z (oral), vehicle: saline): 118 % of control | T/C (endpoint: mean survival time, dose: 0.19 mg/kg/injection, schedule: Q03DX Z (oral), vehicle: saline): 112 % of control | T/C (endpoint: mean survival time, dose: 0.2 mg/kg/injection, schedule: Q01DX Z (sc), vehicle: methylcellulose (MC)): 101 % of control | T/C (endpoint: mean survival time, dose: 0.25 mg/kg/injection, schedule: Q01DX010 (iv), vehicle: saline): 118 % of control | T/C (endpoint: mean survival time, dose: 0.25 mg/kg/injection, schedule: Q01DX Z (oral), vehicle: saline): 182 % of control | T/C (endpoint: mean survival time, dose: 0.25 mg/kg/injection, schedule: Q#A X Z (oral), vehicle: saline): 255 % of control | T/C (endpoint: mean survival time, dose: 0.38 mg/kg/injection, schedule: Q03DX Z (oral), vehicle: saline): 121 % of control | T/C (endpoint: mean survival time, dose: 0.4 mg/kg/injection, schedule: Q01DX Z (ip), vehicle: carboxymethylcellulose (CMC)): 157 % of control and 201 % of control | T/C (endpoint: mean survival time, dose: 0.4 mg/kg/injection, schedule: Q01DX Z (ip), vehicle: methylcellulose (MC)): 151 % of control | T/C (endpoint: mean survival time, dose: 0.4 mg/kg/injection, schedule: Q01DX Z (sc), vehicle: methylcellulose (MC)): 98 % of control and 101 % of control | T/C (endpoint: mean survival time, dose: 0.44 mg/kg/injection, schedule: Q07DX Z (oral), vehicle: saline): 105 % of control | T/C (endpoint: mean survival time, dose: 0.5 mg/kg/injection, schedule: Q01DX009 (ip), vehicle: saline): 159 % of control and 163 % of control and 176 % of control | T/C (endpoint: mean survival time, dose: 0.5 mg/kg/injection, schedule: Q01DX Z (oral), vehicle: saline): 266 % of control | T/C (endpoint: mean survival time, dose: 0.6 mg/kg/injection, schedule: Q01DX Z (ip), vehicle: carboxymethylcellulose (CMC)): 170 % of control and 197 % of control | T/C (endpoint: mean survival time, dose: 0.6 mg/kg/injection, schedule: Q01DX Z (ip), vehicle: methylcellulose (MC)): 166 % of control and 171 % of control | T/C (endpoint: mean survival time, dose: 0.6 mg/kg/injection, schedule: Q01DX Z (sc), vehicle: methylcellulose (MC)): 98 % of control and 101 % of control | T/C (endpoint: mean survival time, dose: 0.88 mg/kg/injection, schedule: Q07DX Z (oral), vehicle: saline): 124 % of control | T/C (endpoint: mean survival time, dose: 0.9 mg/kg/injection, schedule: Q01DX Z (ip), vehicle: carboxymethylcellulose (CMC)): 205 % of control and 257 % of control | T/C (endpoint: mean survival time, dose: 0.9 mg/kg/injection, schedule: Q01DX Z (ip), vehicle: methylcellulose (MC)): 181 % of control and 250 % of control | T/C (endpoint: mean survival time, dose: 0.9 mg/kg/injection, schedule: Q01DX Z (oral), vehicle: carboxymethylcellulose (CMC)): 117 % of control | T/C (endpoint: mean survival time, dose: 0.9 mg/kg/injection, schedule: Q01DX Z (sc), vehicle: methylcellulose (MC)): 98 % of control and 101 % of control | T/C (endpoint: mean survival time, dose: 1.0 mg/kg/injection, schedule: Q01DX009 (ip), vehicle: saline): 202 % of control and 222 % of control and 253 % of control | T/C (endpoint: mean survival time, dose: 1.0 mg/kg/injection, schedule: Q01DX010 (iv), vehicle: saline): 215 % of control | T/C (endpoint: mean survival time, dose: 1.35 mg/kg/injection, schedule: Q01DX Z (ip), vehicle: carboxymethylcellulose (CMC)): 176 % of control and 227 % of control | T/C (endpoint: mean survival time, dose: 1.5 mg/kg/injection, schedule: Q03DX Z (oral), vehicle: saline): 234 % of control | T/C (endpoint: mean survival time, dose: 1.6 mg/kg/injection, schedule: Q01DX Z (oral), vehicle: methylcellulose (MC)): 167 % of control | T/C (endpoint: mean survival time, dose: 1.75 mg/kg/injection, schedule: Q07DX Z (oral), vehicle: saline): 178 % of control | T/C (endpoint: mean survival time, dose: 1.8 mg/kg/injection, schedule: Q01DX Z (oral), vehicle: carboxymethylcellulose (CMC)): 102 % of control and 117 % of control | T/C (endpoint: mean survival time, dose: 2.0 mg/kg/injection, schedule: Q01DX009 (ip), vehicle: saline): 219 % of control and 317 % of control and 319 % of control | T/C (endpoint: mean survival time, dose: 2.0 mg/kg/injection, schedule: Q01DX010 (iv), vehicle: saline): 123 % of control | T/C (endpoint: mean survival time, dose: 3.5 mg/kg/injection, schedule: Q01DX Z (oral), vehicle: carboxymethylcellulose (CMC)): 114 % of control | T/C (endpoint: mean survival time, dose: 3.5 mg/kg/injection, schedule: Q07DX Z (oral), vehicle: saline): 266 % of control | T/C (endpoint: mean survival time, dose: 3.6 mg/kg/injection, schedule: Q01DX001 (ip), vehicle: saline): 239 % of control and 271 % of control and 91 % of control | T/C (endpoint: mean survival time, dose: 4.0 mg/kg/injection, schedule: Q01DX009 (ip), vehicle: saline): 111 % of control and 113 % of control | T/C (endpoint: mean survival time, dose: 7.0 mg/kg/injection, schedule: Q01DX Z (oral), vehicle: carboxymethylcellulose (CMC)): 194 % of control | T/C (endpoint: mean survival time, dose: 7.2 mg/kg/injection, schedule: Q01DX001 (ip), vehicle: saline): 265 % of control and 303 % of control | T/C (endpoint: mean survival time, dose: 14.0 mg/kg/injection, schedule: Q01DX Z (oral), vehicle: carboxymethylcellulose (CMC)): 111 % of control | T/C (endpoint: mean survival time, dose: 25.0 micrograms/kg/injection, schedule: Q01DX Z (oral), vehicle: steriod suspending solution): 101 % of control | T/C (endpoint: mean survival time, dose: 50.0 micrograms/kg/injection, schedule: Q01DX Z (oral), vehicle: steriod suspending solution): 104 % of control | T/C (endpoint: mean survival time, dose: 100.0 micrograms/kg/injection, schedule: Q01DX Z (oral), vehicle: steriod suspending solution): 115 % of control | T/C (endpoint: mean survival time, dose: 110.0 micrograms/kg/injection, schedule: Q01DX Z (sc), vehicle: steriod suspending solution): 102 % of control | T/C (endpoint: mean survival time, dose: 200.0 micrograms/kg/injection, schedule: Q01DX Z (oral), vehicle: steriod suspending solution): 165 % of control | T/C (endpoint: mean survival time, dose: 220.0 micrograms/kg/injection, schedule: Q01DX Z (sc), vehicle: steriod suspending solution): 105 % of control | T/C (endpoint: mean survival time, dose: 450.0 micrograms/kg/injection, schedule: Q01DX Z (sc), vehicle: steriod suspending solution): 124 % of control | T/C (endpoint: median survival time, dose: 0.5 mg/kg/injection, schedule: Q01DX009 (ip), vehicle: saline): 162 % of control | T/C (endpoint: median survival time, dose: 1.0 mg/kg/injection, schedule: Q01DX009 (ip), vehicle: saline): 206 % of control | T/C (endpoint: median survival time, dose: 2.0 mg/kg/injection, schedule: Q01DX009 (ip), vehicle: saline): 181 % of control | T/C (endpoint: median survival time, dose: 4.0 mg/kg/injection, schedule: Q01DX009 (ip), vehicle: saline): 112 % of control

CC(CO)(CO)N=Cc1cc(I)cc(I)c1O
T/C (endpoint: mean survival time, dose: 100.0 mg/kg/injection, schedule: Q01DX001 (ip), vehicle: carboxymethylcellulose (CMC)): 93 % of control | T/C (endpoint: mean survival time, dose: 200.0 mg/kg/injection, schedule: Q01DX001 (ip), vehicle: carboxymethylcellulose (CMC)): 98 % of control | T/C (endpoint: mean survival time, dose: 400.0 mg/kg/injection, schedule: Q01DX001 (ip), vehicle: carboxymethylcellulose (CMC)): 95 % of control
